“Also recorded” adds a separate entry of the source.
Legend:
[1] = tested on: SPS-induced allodynia and anxiety-like behaviors; conditions: less selective NOP receptor antagonist than SB; cited from earlier work
[2] = tested on: SPS induced anxiety-like behaviors in Sprague Dawley (SD) rats; experiment: Elevated Plus Maze (EPM), SPS induced anxiety-like behaviors; format: in vivo; conditions: for Anxiety index (FIG. 3B): female SD rats (n=6, not yet fully powered)
Procedure: (§1) SPS procedure: 2 h of complete restraint in disposable plastic holders, followed by grouped (2-3 rats) forced swim for 20 min in a cylindrical tank (46 cm tall×20 cm in diameter) filled with 22-25° C. water to a depth of 30 cm. After 15 min recovery and drying period, rats are exposed to diethyl ether until loss of consciousness and left undisturbed (except for drug or vehicle injection) and alone for 7 days, after which they are pair housed. All rats are housed with soft bedding, observed for signs of pain or discomfort: weight loss, lack of grooming, or porphyrin staining; any such rats is excluded from study.
Elevated Plus Maze (EPM): Rats will be tested for anxiety-like behaviors. The percentage of open arm entries (number of entries into the open arms divided by total number of entries in both arms), time spent in the open arms, total distance traveled, and total time spent immobile are noted. The anxiety index (AI) is calculated where total exploration on the maze represents the total number of arm entries: Anxiety Index=1−[[(time spent in open arms/total time on the maze (300 sec))+(number of entries into open arms/total number of arm entries)]/2]. Each animal is tested at 9 and 30 days post-SPS.
(§2) Drug Treatment: PPL-138 (0.3 and 1 mg/kg) is dissolved in the same vehicle as 10 mg/kg SB (3% DMSO+97% of 0.5% hydroxypropyl cellulose (HPC)). Drug treatment (i.p.) begins immediately after exposure to ether and continues every other day thereafter. Ctr and SPS rats receive vehicle (3% DMSO+97% 0.5% HPC) injections.
Anxiety index reflects a combination of three anxiety-like behaviors.
(§3) Control (Ctr) and SPS-treated male and female SD rats are treated 3 times each week with Veh, PPL-138 (0.3 and 1 mg/kg, s.c.) or the NOP antagonist SB612111 (SB; 3 mg/kg, i.p.). […] SB alleviates TBI- and 6-OHDA Parkinson disease model-induced locomotor deficits and brain hypoxia.

[3] = tested on: SPS-induced allodynia in Sprague Dawley (SD) rats; experiment: tactile sensitivity (allodynia), paw withdrawal threshold (PWT) after SPS; format: in vivo; conditions: for paw withdrawal threshold, allodynia (FIG. 2A): male SD rats, 1 mg/kg i.p., days 14, 21 and 28, SPS vs SPS+PPL-138, p<0.05 (Tukey); for allodynia (PWT, FIG. 4A): male SPS rats
Procedure: as §1, §2
(§4) Degree of enhanced nociceptive sensitivity by SPS to tactile and thermal stimuli were reduced in this cohort likely a result of group housing during the first 7 days instead of our usual solo housing (FIG. 2). […] PPL-138 reduced serum N/OFQ levels compared to SPS (p<0.05 by Tukey's post-hoc test).
as §3
(§5) Sensitivity to tactile and thermal sensitivity in males and females was determined by paw withdrawal threshold to increasing pressure (PWT; tactile) and paw withdrawal latency to a thermal stimulus (PWL) (FIG. 4). There was a significant interaction between time and treatment for sensitivity to both tactile (A) and thermal (C) stimuli for males ([F (28, 228)=1.708, p=0.0182] and [F (28, 228)=4.276, p<0.0001]), respectively, as well as for thermal sensitivity (D) in females [F (28, 164)=2.286, p=0.0007]. […] Allodynia was reversed by 0.3 mg/kg PPL-138 and by SB in males, and by 1 mg/kg PPL-138 in females (#p<0.05). Thermal hyperalgesia was reversed by both doses of PPL-138 and SB in males, and by 1 mg/kg PPL-138 and SB in females.

[4] = tested on: SPS-induced thermal hyperalgesia in Sprague Dawley (SD) rats; experiment: thermal sensitivity (hyperalgesia), paw withdrawal latency (PWL) after SPS; format: in vivo; conditions: for thermal hyperalgesia (PWL, FIG. 4D): female SPS rats; for thermal hyperalgesia (PWL, FIG. 4D) / thermal hyperalgesia (PWL, FIG. 4C): 28 days; for thermal hyperalgesia (PWL, FIG. 4C): male SPS rats
Procedure: as §1, §2, §4, §3, §5

[5] = tested on: N/OFQ; experiment: serum N/OFQ levels after SPS; format: in vivo, Sprague Dawley (SD) rats; conditions: end of pilot study, compared to SPS, p<0.05 (Tukey); ANOVA F (2, 12)=4.147, p=0.0421
Procedure: as §1, §2, §4

[6] = molecular target: mu opioid receptor; conditions: all four members of the opioid receptor family; cited from earlier work
[7] = molecular target: kappa opioid receptor; conditions: all four members of the opioid receptor family; cited from earlier work
[8] = molecular target: delta opioid receptor; conditions: all four members of the opioid receptor family; cited from earlier work
[9] = molecular target: NOP receptor; conditions: all four members of the opioid receptor family; cited from earlier work
[10] = tested on: mu opioid receptor; conditions: less than buprenorphine; cited from earlier work
[11] = tested on: NOP receptor; conditions: higher than buprenorphine; cited from earlier work
[12] = tested on: kappa receptor; conditions: PPL-138 like buprenorphine; cited from earlier work
[13] = tested on: delta receptor; conditions: PPL-138 like buprenorphine; cited from earlier work
[14] = tested on: TBI-induced locomotor deficits and brain hypoxia; conditions: cited from earlier work
[15] = tested on: 6-OHDA Parkinson disease model-induced locomotor deficits and brain hypoxia; conditions: cited from earlier work
[16] = tested on: neuropathy; conditions: models of neuropathy; cited from earlier work
[17] = tested on: irritable bowel syndrome (IBS); conditions: models of irritable bowel syndrome (IBS); cited from earlier work

CCc1ccc(OCc2ccccc2C(=O)Nc2ccc3nc(C)cc(N)c3c2)cc1 [JTC-801]
SPS-induced allodynia [1]: reversed
SPS-induced anxiety-like behaviors [1]: reversed

O=C(CCc1ccccc1)O[C@@]12CCC(=O)[C@@H]3Oc4c(O)ccc5c4[C@@]31CCN(CC1CC1)[C@@H]2C5 [PPL-138, 14β-(3-phenylpropanoyl)-17-cyclopropylmethyl-7,8-dihydronoroxymorphinone]
Anxiety index (FIG. 3B) ([2]; PPL-138 1 mg/kg s.c., day 30 post-SPS): significant effect
anxiety-like behaviors (FIG. 3B) ([2]; female SD rats, overall statement): reduces
distance travelled ([2]; male SD rats, 1 mg/kg i.p., between groups (Ctr, SPS, SPS+PPL-138)): no differences
open arm time (FIG. 1B) ([2]; male SD rats, 1 mg/kg i.p., days 9 and 30 post-SPS, treatment F (2,12)=5.066, p<0.05, PPL 138+SPS vs SPS *p<0.05, **p<0.01 (Tukey), 1 mg/kg): increased; also recorded: significant effect
anxiety index (FIG. 1A) ([2]; male SD rats, 1 mg/kg i.p., days 9 and 30 post-SPS, treatment F (2,12)=9.912, p<0.005, PPL 138+SPS vs SPS *p<0.05, **p<0.01 (Tukey), 1 mg/kg): reduced; also recorded: significant effect
open arm entries (FIG. 1C) ([2]; male SD rats, 1 mg/kg i.p., days 9 and 30 post-SPS, treatment F (2,12)=11.99, p<0.005, PPL 138+SPS vs SPS *p<0.05, **p<0.01 (Tukey), 1 mg/kg): increased; also recorded: significant effect
Anxiety index (FIG. 3A) ([2]; male SD rats, PPL-138 0.3 mg/kg s.c., day 30 post-SPS): significant effects
Anxiety index (FIG. 3A) ([2]; male SD rats, PPL-138 1 mg/kg s.c., day 9 post-SPS): significant effect
Anxiety index (FIG. 3A) ([2]; male SD rats, PPL-138 1 mg/kg s.c., day 30 post-SPS): significant effects
anxiety-like behaviors (FIG. 3A) ([2]; male SD rats, overall statement): reduces
development of PTSD-induced anxiety-like behaviors ([2]; males and females, overall conclusion): reverses
allodynia (FIG. 4) ([3]; SD rats, overall statement): reduces
allodynia (PWT, FIG. 4B) ([3]; female SPS rats, PPL-138 1 mg/kg s.c., 28 days, #p<0.05): reversed
paw withdrawal threshold, allodynia (FIG. 2A) ([3]; 1 mg/kg): SPS rats had significantly lower paw withdrawal threshold
paw withdrawal threshold, allodynia (FIG. 2A) ([3]; listed as PPL 138, 1 mg/kg): reversed
allodynia (PWT, FIG. 4A) ([3]; PPL-138 0.3 mg/kg s.c., 28 days, #p<0.05): reversed
development of PTSD-induced nociceptive sensitivity ([3]; males and females, overall conclusion (tactile and thermal)): reverses
hyperalgesia (FIG. 4) ([4]; SD rats, overall statement): reduces
thermal hyperalgesia (PWL, FIG. 4D) ([4]; PPL-138 1 mg/kg s.c.): reversed
thermal sensitivity (FIG. 2B) ([4]; male SD rats, 1 mg/kg i.p., treatment F (2, 12)=7.56, p<0.01): reversed
thermal hyperalgesia (PWL, FIG. 4C) ([4]; PPL-138 0.3 mg/kg s.c. (both doses)): reversed
thermal hyperalgesia (PWL, FIG. 4C) ([4]; PPL-138 1 mg/kg s.c. (both doses)): reversed
serum N/OFQ levels [5]: reduced
Ki [6]: < 0.01 µM
Ki [7]: < 0.01 µM
Ki [8]: < 0.01 µM
Ki [9]: < 0.01 µM
efficacy at mu [10]: very low efficacy
partial agonist activity at NOP receptor [11]: partial agonist
activity at kappa receptor [12]: antagonist
activity at delta receptor [13]: antagonist

CO[C@@]12CC[C@@]3(C[C@@H]1[C@](C)(O)C(C)(C)C)[C@H]1Cc4ccc(O)c5c4[C@@]3(CCN1CC1CC1)[C@H]2O5 [buprenorphine, reference compound]
activity at kappa receptor [12]: antagonist
activity at delta receptor [13]: antagonist

Cc1cccc2c1CC[C@H](CN1CCC(c3c(Cl)cccc3Cl)CC1)C[C@@H]2O [SB612111]
Anxiety index (FIG. 3B) ([2]; SB 3 mg/kg i.p., day 9 post-SPS): significant effect
Anxiety index (FIG. 3A) ([2]; male SD rats, SB 3 mg/kg i.p., day 30 post-SPS): significant effects
allodynia (PWT, FIG. 4A) ([3]; SB 3 mg/kg i.p., 28 days, #p<0.05): reversed
thermal hyperalgesia (PWL, FIG. 4D) ([4]; SB 3 mg/kg i.p.): reversed
thermal hyperalgesia (PWL, FIG. 4C) ([4]; SB 3 mg/kg i.p.): reversed
brain hypoxia [14]: alleviates
locomotor deficits [14]: alleviates
brain hypoxia [15]: alleviates
locomotor deficits [15]: alleviates
antinociception [16]: produces antinociception
antinociception [17]: produces antinociception

From US20260325506A1, “METHODS OF TREATING POST-TRAUMATIC STRESS DISORDER AND ALCOHOL USE DISORDER” (FLORIDA ATLANTIC UNIVERSITY RESEARCH CORPORATION, priority 2023, published 2026)
